Experimental data as given in patent publication US11684672B2, “Combinations of copanlisib with anti-PD-1 antibody” (BAYER PHARMA AKTIENGESELLSCHAFT, priority 2017, dated 2023).
Structures can show the parent of a compound that is named as a salt.

What was measured:
[1] = system: regulatory T cells (Treg); assay: Analysis of regulatory T cells (Treg) and CD8+ T cells in tumor, spleen and thymus of the A20 model; type: in vivo, mouse
Description: Sampling procedures: organ and tumor tissues were quickly removed and weighted 3 h post the final dose for FACS, IHC (FFPE), and RNA/pretein expression analysis.
The anti-tumor activity of Compound A and Compound B was assessed firstly in an immune-checkpoint blocker resistant DLBCL syngeneic A20 xenograft mouse model as single agent and in combination. A20 cells were inoculated subcutaneously at the right flank of female BALB/c mice for tumor development. The treatment was started when the average tumor size reached about 116 mm^3. Mice were allocated randomly into experimental groups according to their tumor sizes and being treated from day 12 after tumor cell inoculation. Cpd A was dosed at 14 mg/kg and Cpd B at 200 μg/mouse intravenously with the schedule indicated in FIG. 1 A. Treatment groups were: control antibody (ctrl Ab), vehicle control (vehicle), compound A monotherapy (Cpd. A), Cpd. B monotherapy, 3 combination groups with different dosing schedules. Body weights and tumor size were measured three times per week. Tumor growth curve (FIG. 1B), tumor weight at the end of treatment (FIG. 1C) and tumor response (FIG. 1D) were used as anti-tumor activity endpoints. The tolerability was assessed by body weight change. […]

[2] = system: A20 diffuse large B cell lymphoma; assay: Anti-tumor efficacy in A20 DLBCL syngeneic mouse model; type: in vivo; conditions: monotherapy; Cpd A 14 mg/kg i.v., Cpd B 200 μg/mouse i.v.; female BALB/c mice; vs vehicle control group
Description: (§1) A20 diffuse large B cell lymphoma and CT26 colorectal cancer cells were maintained in vitro in cell cultural medium supplemented with serum (according to the instructions for each corresponding cell lines) at 37° C. in an atmosphere of 5% CO2 in air. The tumor cells were routinely subcultured twice weekly. The cells in an exponential growth phase were harvested and counted for tumor inoculation. To investigate anti-tumor efficacy and mechanisms of action in vivo, each mouse was inoculated subcutaneously at the right lower flank region with tumor cells (1×10^5−2×10^6 depending on the cell lines) in 0.1 ml of PBS with or without metrigel for tumor development. Before commencement of treatment, all animals were weighed and the tumor volumes were measured using a caliper. […]
(§2) Tumor volumes were measured 2-3 times weekly in two dimensions using a caliper, and the volume was expressed in mm^3 using the formula: V=0.5 a×b2 where a and b are the long and short diameters of the tumor, respectively. Tumor weight was measured at study termination. […]
The anti-tumor activity of Compound A and Compound B was assessed firstly in an immune-checkpoint blocker resistant DLBCL syngeneic A20 xenograft mouse model as single agent and in combination. […] Body weights and tumor size were measured three times per week. […] The tolerability was assessed by body weight change. […]

[3] = system: CT26 (KRAS^mut, non-MSI^high) colorectal cancer; assay: Anti-tumor efficacy in CT26 colorectal cancer syngeneic mouse model; type: in vivo; conditions: monotherapy
Description: as §1, §2
Therefore, the anti-tumor activity of Compound A and Compound B was assessed in the mouse syngeneic CT26 (KRAS^mut, non-MSI^high) colorectal cancer xenograft model as single agent and in combination. […]

COc1c(OCCCN2CCOCC2)ccc2c1N=C(NC(=O)c1cnc(N)nc1)N1CCN=C21 [Cpd A, 2-amino-N-[7-methoxy-8-(3-morpholin-4-ylpropoxy)-2,3-dihydroimidazo[1,2-c]quinazolin-5-yl]pyrimidine-5-carboxamide dihydrochloride]
effect on Treg in thymus and spleen ([1]; A20 model, thymus and spleen): minimal or no effects | effect on Treg population in tumors ([1]; A20 tumors, Treg among CD4+ T cells): specifically reduce the Treg population in tumors | relative tumor growth inhibition (TGI %) [2]: 78% | TGI [3]: 71%
